Experimental data from patent US20250082620A1, “NOVEL CINNAMAMIDE DERIVATIVES AND USE THEREOF” (KOREA RESEARCH INSTITUTE OF BIOSCIENCE AND BIOTECHNOLOGY, priority 2022, published 2025).
Each block holds one molecule with its values, some of them ahead of it.

Key:
STAT3 activity (p-STAT3) [1] = biological target: T1, STAT3 activity (p-STAT3) (Homo sapiens, UniProt P40763); test: STAT3 phosphorylation inhibitory effect in cancer cell line by Western blot (Table 2); type: cell-based; parameters: endogenous in cells; host or cells: unnamed 'rectal cancer cell' line; details: rectal cancer cell line, read-out: Concentration at which STAT3 activity (p-STAT3) is inhibited by 50% (μM; IC50)
T1 sequence (P40763 whole entry): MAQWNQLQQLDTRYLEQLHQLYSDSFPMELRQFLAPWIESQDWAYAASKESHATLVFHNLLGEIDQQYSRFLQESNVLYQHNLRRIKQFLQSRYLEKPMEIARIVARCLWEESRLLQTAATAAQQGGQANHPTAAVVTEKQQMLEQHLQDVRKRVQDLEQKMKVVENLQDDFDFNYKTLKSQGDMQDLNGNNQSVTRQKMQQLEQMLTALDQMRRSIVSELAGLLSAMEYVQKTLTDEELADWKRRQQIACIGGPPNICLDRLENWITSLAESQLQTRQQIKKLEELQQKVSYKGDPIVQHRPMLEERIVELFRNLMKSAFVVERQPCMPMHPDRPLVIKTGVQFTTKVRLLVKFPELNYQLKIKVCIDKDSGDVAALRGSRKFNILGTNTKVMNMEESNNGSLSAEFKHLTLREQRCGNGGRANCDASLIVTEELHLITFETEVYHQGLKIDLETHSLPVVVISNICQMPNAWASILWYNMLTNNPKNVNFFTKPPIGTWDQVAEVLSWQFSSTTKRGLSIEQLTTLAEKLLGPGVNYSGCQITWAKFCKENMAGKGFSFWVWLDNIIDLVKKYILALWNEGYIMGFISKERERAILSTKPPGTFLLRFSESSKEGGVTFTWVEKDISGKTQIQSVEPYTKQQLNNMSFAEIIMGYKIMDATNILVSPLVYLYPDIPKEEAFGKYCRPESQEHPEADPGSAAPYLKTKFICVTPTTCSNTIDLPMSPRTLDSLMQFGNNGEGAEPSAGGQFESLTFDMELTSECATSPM
Experimental: (§1) Prostate cancer cell line DU-145, breast cancer cell MDA-MB 468, lung cancer cell HCC827, natural killer cells (NKL), or bone marrow-derived macrophages (BMDM) (4×10^5 cells), which are immune cells, were plated in a 6-well plate. After 24 hours, the cells were each treated with 0.1% DMSO, HCA, EA, and the compounds prepared in Synthesis Examples 1 to 8 according to concentration and time, washed with PBS, and recovered using RIPA buffer. […] of protein quantified using the Bio-Rad protein assay kit (Bio-Rad, Hercules, California, USA) was subjected to 8% SDS-PAGE electrophoresis and transferred to a PVDF membrane (EMD Millipore, Billerica, MA, USA). After blocking the membrane with TBST containing 5% skim milk, the experiment was performed using primary and secondary antibodies. The primary antibodies used were p-STAT3 (Y705) (Cell Signaling), STAT3 (Cell Signaling), Cyclin D1 (Santa Cruz), Cyclin A (Santa Cruz), Mcl-1 (Santa Cruz), Survivin (Cell Signaling), Bcl-XL (Santa Cruz), and PARP (Cell Signaling) GAPDH (Santa Cruz), and the secondary antibodies used were HRP-conjugated goat anti-rabbit and anti-mouse IgG (Jackson ImmunoResearch Laboratories, West Grove, PA, USA). The antibodies used were each washed three times with TBST, and bands were detected using Luminata Forte Western HRP substrate (EMD Millipore) by LAS 4000 mini (GE Healthcare Life Sciences). Subsequently, correction using GAPDH was performed using the MultiGauge program (Fuji Photo Film, Tokyo, Japan).
The STAT3 phosphorylation inhibitory effect of the cinnamamide derivatives of Chemical Formula 1 prepared in Synthesis Examples 1 to 8 in cancer cell lines was confirmed by Western blot.
Specifically, the STAT3 phosphorylation inhibitory effect in rectal cancer cell was confirmed line as an example of representative carcinoma.

[2] = system: human-derived prostate cancer (DU-145); test: Nude mouse subcutaneous transplant model of human-derived prostate cancer (DU-145); type: in vivo, nude mice
Experimental: It was attempted to evaluate the anticancer efficacy of the compound CG165 of the present disclosure by oral administration using nude mouse subcutaneous transplant models of human-derived prostate cancer (DU-145).
Specifically. Athymic-NCr NCr-nu specific pathogen-free (SPF) 5-week-old nude mice supplied by KOATECH (Pyeongtaek-si, Gyeonggi-do) were used as animals. The cancer cell concentration was adjusted to 3×10^7 cells/mL, and 0.3 mL of cell culture per mouse was injected subcutaneously into the axillary area between the right shoulder and chest wall. Subsequently, CG165 was prepared at the corresponding concentrations by adding DMAC 10%+Tween80 10%+20% HPBCD 80% step by step, and was administered orally at 0.2 mL per 20 g of mouse, which was repeated a total of 23 times for 30 days. At 30 days after starting drug administration, the DU-145 tumor was excised and its weight was measured.
Next, it was attempted to evaluate the anticancer efficacy of the compound CG126 of the present disclosure by intraperitoneal administration using nude mouse subcutaneous transplant models of human-derived prostate cancer (DU-145) in the same manner as above.

[3] = biological target: T2, STAT3 phosphorylation (p-STAT3) (Homo sapiens, UniProt P40763); test: STAT3 phosphorylation inhibition in natural killer cells (NKL) by Western blot; type: cell-based; details: 2, 5, 10 μM
T2 construct: endogenous in cells; host or cells: NKL natural killer cells
T2 sequence (P40763 whole entry): as above
Experimental: as §1, with “The primary antibodies used were p-STAT3 (Y705) (Cell Signaling), STAT3 (Cell Signaling), Cyclin D1 (Santa Cruz), Cyclin A (Santa Cruz), Mcl-1 (Santa Cruz), Survivin (Cell Signaling), Bcl-XL (Santa Cruz), and PARP (Cell Signaling) GAPDH (Santa Cruz), and the secondary antibodies used were HRP-conjugated goat anti-rabbit and anti-mouse IgG (Jackson ImmunoResearch Laboratories, West Grove, PA, USA).” left out, “Subsequently, correction using GAPDH was performed using the MultiGauge program (Fuji Photo Film, Tokyo, Japan).” left out
Specifically, NKL (4×10^5 cells) were plated in 6-well plate and each treated with 2 μM, 5 μM, and 10 μM of CG155 or CG165, and then the degree of STAT3 phosphorylation was measured by Western blot using p-STAT3 antibody.

[4] = biological target: T3, STAT3 phosphorylation (p-STAT3) (Mus musculus, UniProt P42227); test: STAT3 phosphorylation inhibition in IL-10-treated bone marrow-derived macrophages (BMDM) by Western blot; type: cell-based, C57BL/6 mice; details: for inhibition of phosphorylation of STAT3, dependence on concentration: 1 hour pre-treatment, then IL-10 for 15 minutes
T3 construct: the bone marrow-derived macrophages isolated from mouse bone marrow; endogenous in cells; host or cells: primary bone marrow-derived macrophages from C57BL/6 mice
T3 sequence (P42227 whole entry): as the sequence (P40763 whole entry) above, with E760D counted along it
Experimental: as §1, with “Japan). […]” for “Japan).”
Subsequently, in order to confirm the function of CG155 and CG165 in inhibiting STAT3 activation in the bone marrow-derived macrophages isolated from mouse bone marrow, the bone marrow-derived macrophages were each pre-treated with DMSO, CG155 (5 μM, 10 μM), and CG165 (2 μM, 5 μM) for 1 hour. After removing the culture medium, the bone marrow-derived macrophages were treated with interleukin-10 (IL-10), a type of cytokine that can activate STAT3, for 15 minutes, and the function of CG155 and CG165 on inhibiting STAT3 activation was measured by Western blot using p-STAT3 antibody.

[5] = system: breast cancer cell line MDA-MB-468; test: Cell proliferation assay (WST-1) in breast cancer cell line MDA-MB-468; type: cell-based; details: 24 or 48 hours
Experimental: (§2) In Example 1, it was confirmed that STAT3 activity (p-STAT3) was inhibited by more than 50% in cancer cells when treated with the compound CG165 of the present disclosure. In order to confirm the effect of inhibiting STAT3 activity on inhibition of cancer cell growth, cell proliferation assay was performed using the breast cell line, a representative carcinoma.
Specifically, the breast cancer cell line MDA-MB-468 was treated with CG-165 according to concentrations for 24 or 48 hours, and then the degree of cell viability was measured using the WST-1 assay (Dojindo Laboratories, Kumamoto, Japan).

[6] = system: MCF10A, human breast epithelial cells; test: Cell viability (WST-1) in normal cells MCF10A; type: cell-based; details: 10 μM, 48 hours
[7] = Single oral dose toxicity in mice; type: in vivo; details: male mice; 100 mg/kg, 200 mg/kg, and 300 mg/kg
Experimental: In order to obtain information on the acute toxicity of the compound CG165 of the present disclosure whose anticancer effect has been verified in animal models, the test substance was administered orally once at 100 mg/kg, 200 mg/kg, and 300 mg/kg to male mice to determine mortality, general symptoms, weight change, and post-mortem over 7 days.
Specifically, 20 Athymic-NCr NCr-nu specific pathogen-free (SPF) 5-week-old nude mice supplied by KOATECH (Pyeongtaek-si, Gyeonggi-do) were used as animals. Subsequently, CG165 was prepared as administration solution at different concentrations by adding DMAC 10%+Tween80 10%+20% HPBCD 80% step by step, and was administered orally.
General symptoms and dead animals were observed every hour from 1 to 6 hours after the final administration on the day of administration, and once daily from the day after administration until the 7th day for observation of changes in general symptoms, toxic symptoms, and the presence of dead animals.
In order to observe changes in body weight, the body weight of all animals used in the test was measured before administration and on days 0, 1, 2, 4, and 7 after administration.
On the 7th day after administration, all animals were anesthetized using CO2 gas, laparotomized, and killed by exsanguination by cutting the abdominal artery and vein, and all internal organs were visually observed.

STAT3 activity (p-STAT3) [8] = biological target: T1, STAT3 activity (p-STAT3); test: STAT3 phosphorylation inhibition in prostate cancer cell line DU-145 by Western blot; type: cell-based; parameters: endogenous in cells; host or cells: DU-145, MDA-MB-468, HCC827
Experimental: as §1
Next, the STAT3 phosphorylation inhibitory effect of the compound CG165 of the present disclosure in cancer cell lines was confirmed by Western blot.

STAT3 activity (p-STAT3) [9] = biological target: T1, STAT3 activity (p-STAT3); test: STAT3 phosphorylation inhibition in lung cancer cell line HCC827 by Western blot; type: cell-based; parameters: endogenous in cells
Experimental: as §1, with “Subsequently, correction using GAPDH was performed using the MultiGauge program (Fuji Photo Film, Tokyo, Japan).” left out

[10] = system: human foreskin fibroblasts HFF; test: Cell viability (WST-1) in normal cells HFF; type: cell-based; details: 10 μM, 48 hours
STAT3 activity (p-STAT3) [11] = biological target: T1, STAT3 activity (p-STAT3); test: STAT3 phosphorylation inhibition in breast cancer cell line MDA-MB-468 by Western blot; type: cell-based; parameters: endogenous in cells
Experimental: as §1, with “Subsequently, correction using GAPDH was performed using the MultiGauge program (Fuji Photo Film, Tokyo, Japan).” left out

[12] = system: STAT3 target proteins (cyclin A, Mcl-1, survivin), caspase 3, PARP; test: Expression of STAT3 target proteins and apoptotic effect in cancer cell lines by Western blot; type: cell-based
Experimental: as §1
In Example 1, it was confirmed that STAT3 activity (p-STAT3) was inhibited in cancer cells when treated with the compound CG165 of the present disclosure. The effect of inhibiting the expression of STAT3 target proteins and the apoptotic effect due to the inhibition of STAT3 activity were confirmed using Western blot.

[13] = system: prostate cancer cell line DU-145; test: Cell proliferation assay (WST-1) in prostate cancer cell line DU-145; type: cell-based, human; details: 24 or 48 hours
Experimental: as §2, with “inhibited” for “inhibited by more than 50%”, “cinnamamide derivatives” for “compound CG165”, “Chemical Formula 1 prepared in Synthesis Examples 1 to 8.” for “the present disclosure.”, “prostate cancer” for “breast”
Specifically, the prostate cancer cell line DU-145 (0.8×10^4 cells) was plated in a 96-well plate. After 24 hours, DMSO (control) and CG-165 were treated for 24 or 48 hours according to concentration, and then treated with 10 ul of WST-1 reagent (Dojindo Laboratories, Kumamoto, Japan). After treatment for about 1 hour, cell viability was calculated using the absorbance measured at 450 nm with a microplate reader (Multiskan GO system, Thermo Fisher Scientific, Rockford, IL, USA).

SMILES: C=C(C)C(=O)NC(=O)/C=C/c1ccccc1OC [CG126]
IC50 (STAT3 activity (p-STAT3) [1]): 3.7 µM
decrease in tumor weight compared to the vehicle ([2]; 30 mg/kg intraperitoneal, day 25, p<0.06): 54.2%

SMILES: C=C(C)C(=O)NC(=O)/C=C/c1ccccc1OCc1ccncc1 [CG155]
inhibition of phosphorylation of STAT3, dependence on concentration [3]: concentration-dependent manner
inhibition of phosphorylation of STAT3, dependence on concentration [4]: concentration-dependent manner
IC50 (STAT3 activity (p-STAT3) [1]): 5 µM

SMILES: C#CCOc1ccccc1/C=C/C(=O)NC(=O)C(=C)C [CG164]
IC50 (STAT3 activity (p-STAT3) [1]): 3.5 µM

SMILES: C#CCOc1ccccc1/C=C/C(=O)N(C)C(=O)C(=C)C [CG165]
inhibition of growth of breast cancer cells (cell viability, WST-1) [5]: inhibited the growth of breast cancer cells in a concentration-dependent manner
inhibition of phosphorylation of STAT3, dependence on concentration [3]: concentration-dependent manner
effect on the growth of normal cells (cell viability, WST-1) [6]: no significant effect
inhibition at 5 µM ([4]; 5 μM, IL-10 stimulated, read-out: inhibition of STAT3 activation): > 90%
inhibition of phosphorylation of STAT3, dependence on concentration [4]: concentration-dependent manner
IC50 (STAT3 activity (p-STAT3) [1]): 1.8 µM
toxicological changes upon single oral administration [7]: did not cause toxicological changes
inhibition of STAT3 activity (p-STAT3), dependence on concentration (STAT3 activity (p-STAT3) [8]): concentration-dependent manner
inhibition of STAT3 activity (p-STAT3), dependence on time (STAT3 activity (p-STAT3) [8]): time-dependent manner
inhibition at 2 µM (STAT3 activity (p-STAT3) [8]; 2 μM): > 50%
inhibition of STAT3 activity (p-STAT3), dependence on concentration (STAT3 activity (p-STAT3) [9]): concentration-dependent manner
inhibition at 5 µM (STAT3 activity (p-STAT3) [9]; 5 μM): > 50%
effect on the growth of normal cells (cell viability, WST-1) [10]: no significant effect
inhibition of STAT3 activity (p-STAT3), dependence on concentration (STAT3 activity (p-STAT3) [11]): concentration-dependent manner
inhibition at 5 µM (STAT3 activity (p-STAT3) [11]; 5 μM): > 50%
change in body weight compared to the vehicle ([2]; 30 mg/kg oral): no decrease in body weight was observed
decrease in tumor weight compared to the vehicle ([2]; 30 mg/kg oral, day 30, p<0.05): 43.3%
change in body weight compared to the vehicle ([2]; 60 mg/kg oral): no decrease in body weight was observed
decrease in tumor weight compared to the vehicle ([2]; 60 mg/kg oral, day 30, p<0.05): 64.3%
tumor growth inhibition (tumor size) compared to the vehicle ([2]; 60 mg/kg oral, day 30, p<0.05): 63.3%
tumor growth inhibition (tumor size) compared to the vehicle ([2]; P.O, 30 mg/kg, day 30, p<0.05): 45.6%
caspase 3 activation [12]: activated
decomposition of PARP protein (cell death biomarker) [12]: promoted
expression of cyclin A, Mcl-1, and survivin (target proteins of STAT3) [12]: significantly inhibited
inhibition of growth of cancer cells (cell viability, WST-1) [13]: inhibited the growth of cancer cells in a concentration-dependent manner

SMILES: C=C(C)C(=O)NC(=O)/C=C/c1ccccc1OCc1ccccc1 [CG187]
IC50 (STAT3 activity (p-STAT3) [1]): 3.5 µM

Continued, values first:

IC50 (STAT3 activity (p-STAT3) [1]): 8.1 µM
SMILES: C=C(C)C(=O)NC(=O)/C=C/c1ccccc1C [CG127]

IC50 (STAT3 activity (p-STAT3) [1]): 6.2 µM
SMILES: C=C(C)C(=O)NC(=O)/C=C/c1ccccc1O [CG133]

IC50 (STAT3 activity (p-STAT3) [1]): 2 µM
SMILES: C=C(C)C(=O)NC(=O)/C=C/c1ccccc1Cl [CG168]
